Assays:
PDE4 = assay: Inhibition of PDE4 activity (cytosol from human neutrophils, [3H]cAMP hydrolysis); type: biochemical; conditions: 0.5 μM cAMP, Motapizone (1 μM) included to suppress PDE3 activity
Experimental: Method for Measuring Inhibition of PDE4 Activity
PDE4 activity was determined as described by Thompson et al. (Adv Cycl Nucl Res 10: 69-92, 1979) with some modifications (Bauer and Schwabe, Naunyn-Schmiedeberg's Arch Pharmacol 311: 193-198, 1980). At a final assay volume of 200 μl (96 well microtiter plates) the assay mixture contained 20 mM Tris (pH 7.4), 5 mM MgCl2, 0.5 μM cAMP, [^3H]cAMP (about 30,000 cpm/assay), the test compound and an aliquot of cytosol from human neutrophils which mainly contains PDE4 activity as described by Schudt et al. (Naunyn-Schmiedeberg's Arch Pharmacol 344: 682-690, 1991); the PDE3-specific inhibitor Motapizone (1 μM) was included to suppress PDE3 activity originating from contaminating platelets. Serial dilutions of the compounds were prepared in DMSO and further diluted 1:100 (v/v) in the assays to obtain the desired final concentrations of the inhibitors at a DMSO concentration of 1 % (v/v) which by itself only slightly affected PDE4 activity.
After preincubation for 5 min at 37° C., the reaction was started by the addition of substrate (cAMP) and the assays were incubated for further 15 min at 37° C. 50 μl of 0.2 N HCl was added to stop the reaction and the assays were left on ice for about 10 min. Following incubation with 25 μg 5′-nucleotidase (Crotalus atrox snake venom) for 10 min at 37° C., the assays were loaded on QAE Sephadex A-25 (1 ml bed volume). The columns were eluted with 2 ml of 30 mM ammonium formiate (pH 6.0) and the eluate was counted for radioactivity. Results were corrected for blank values (measured in the presence of denatured protein) which were below 5% of total radioactivity. […] The IC50-values for the compounds according to the invention for the inhibition of the PDE4 activity were determined from the concentration-inhibition curves by nonlinear-regression.
The inhibitory values determined for the compounds according to the invention follow from the following table A, which the numbers of the compounds correspond to the numbers of the examples.

COc1ccc(C2=NN(C3CC[N+]([O-])(CC(N)=O)CC3)C(=O)C3CC=CCC23)cc1OC [compound 1, 2-{4-[(4aS,8aR)-4-(3,4-Dimethoxy-phenyl)-1-oxo-4a,5,8,8a-tetrahydro-1H-phthalazin-2-yl]-1-oxy-piperidin-1-yl}-acetamide]
Inhibition of PDE4 acitivity [measured as −logIC50 (mol/l)] (PDE4): 8.31 | melting point: 159 to 161 °C

COc1ccc(C2=NN(C3CC[N+]([O-])(CC(=O)NC(C)C)CC3)C(=O)C3CC=CCC23)cc1OC [compound 2, 2-{4-[(4aS,8aR)-4-(3,4-Dimethoxy-phenyl)-1-oxo-4a,5,8,8a-tetrahydro-1H-phthalazin-2yl]-1-oxy-piperidin-1-yl}-N-isopropyl-acetamide]
Inhibition of PDE4 acitivity [measured as −logIC50 (mol/l)] (PDE4): 9.3 | melting point: 130 to 132 °C

COc1ccc(C2=NN(C3CC[N+]([O-])(CC(N)=O)CC3)C(=O)C3CCCCC23)cc1OC (stereo not drawn) [compound 3]
Inhibition of PDE4 acitivity [measured as −logIC50 (mol/l)] (PDE4): 7.5 | melting point: 176 to 177 °C

— patent US20060166995A1, “Piperidine-n-oxide-derivatives” (ALTANA PHARMA AG, priority 2002, published 2006)
